According to paper PMC8288134, “Synthesis, potential antitumor activity, cell cycle analysis, and multitarget mechanisms of novel hydrazones incorporating a 4-methylsulfonylbenzene scaffold: a molecular docking study” (Journal of Enzyme Inhibition and Medicinal Chemistry, 2021):
Read-outs that look alike come from different tables or passages of the source.

What was measured:
MOLT-4 = test: NCI antitumor screen (SRB); format: cell-based; conditions: Homo sapiens; for inhibition at 10 µM: one dose 10 µM, read-out: Growth inhibition percentage (GI%)
NCI-H23 [1] = test: NCI antitumor screen (SRB); format: cell-based; conditions: Homo sapiens; for inhibition at 10 µM: one dose 10 µM, read-out: Growth inhibition percentage (GI%)
BT-549 [2] = test: NCI antitumor screen (SRB); format: cell-based; conditions: Homo sapiens; for inhibition at 10 µM: one dose 10 µM, read-out: Growth inhibition percentage (GI%)
CAKI-1 [3] = test: NCI antitumor screen (SRB); format: cell-based; conditions: Homo sapiens; for inhibition at 10 µM: one dose 10 µM, read-out: Growth inhibition percentage (GI%)
T-47D = test: NCI antitumor screen (SRB); format: cell-based; conditions: Homo sapiens, T47D; for inhibition at 10 µM: one dose 10 µM, read-out: Growth inhibition percentage (GI%)
OVCAR-3 = test: NCI antitumor screen (SRB); format: cell-based; conditions: Homo sapiens; for inhibition at 10 µM: one dose 10 µM, read-out: Growth inhibition percentage (GI%)
SK-OV-3 = test: NCI antitumor screen (SRB); format: cell-based; conditions: Homo sapiens; for inhibition at 10 µM: one dose 10 µM, read-out: Growth inhibition percentage (GI%)
MCF7 = test: NCI antitumor screen (SRB); format: cell-based; conditions: Homo sapiens; for inhibition at 10 µM: one dose 10 µM, read-out: Growth inhibition percentage (GI%)
HCC-2998 = test: NCI antitumor screen (SRB); format: cell-based; conditions: Homo sapiens; for inhibition at 10 µM: one dose 10 µM, read-out: Growth inhibition percentage (GI%)
UACC-62 = test: NCI antitumor screen (SRB); format: cell-based; conditions: Homo sapiens; for inhibition at 10 µM: one dose 10 µM, read-out: Growth inhibition percentage (GI%)
NCI/ADR-RES = test: NCI antitumor screen (SRB); format: cell-based; conditions: Homo sapiens; for inhibition at 10 µM: one dose 10 µM, read-out: Growth inhibition percentage (GI%)
LOX IMVI = test: NCI antitumor screen (SRB); format: cell-based; conditions: Homo sapiens; for inhibition at 10 µM: one dose 10 µM, read-out: Growth inhibition percentage (GI%)
SR [4] = test: NCI antitumor screen (SRB); format: cell-based; conditions: Homo sapiens; for inhibition at 10 µM: one dose 10 µM, read-out: Growth inhibition percentage (GI%)
HCT-15 = test: NCI antitumor screen (SRB); format: cell-based; conditions: Homo sapiens; for inhibition at 10 µM: one dose 10 µM, read-out: Growth inhibition percentage (GI%)
SK-MEL-5 = test: NCI antitumor screen (SRB); format: cell-based, human; conditions: for inhibition at 10 µM: read-out: Growth inhibition percentage (GI%)
EKVX = test: NCI antitumor screen (SRB); format: cell-based; conditions: Homo sapiens; for inhibition at 10 µM: one dose 10 µM, read-out: Growth inhibition percentage (GI%)
M14 [5] = test: NCI antitumor screen (SRB); format: cell-based; conditions: Homo sapiens; for inhibition at 10 µM: one dose 10 µM, read-out: Growth inhibition percentage (GI%)
HOP-62 = test: NCI antitumor screen (SRB); format: cell-based; conditions: Homo sapiens
COLO 205 = test: NCI antitumor screen (SRB); format: cell-based; conditions: Homo sapiens; for inhibition at 10 µM: one dose 10 µM, read-out: Growth inhibition percentage (GI%)
[6] = system: breast cancer tumour cell lines; conditions: cited from earlier work
CAKI-1 [7] = system: CAKI-1; parameters: method as in https://dtp.cancer.gov/dtpstandard/dwindex/index.jsp; conditions: reference drugs, ref https://dtp.cancer.gov/dtpstandard/dwindex/index.jsp; cited from earlier work
[8] = system: CNS cancer tumour cell lines; conditions: cited from earlier work
TK-10 = system: TK-10; parameters: method as in https://dtp.cancer.gov/dtpstandard/dwindex/index.jsp; conditions: reference drugs, ref https://dtp.cancer.gov/dtpstandard/dwindex/index.jsp; cited from earlier work
MALME-3M = system: MALME-3M; parameters: method as in https://dtp.cancer.gov/dtpstandard/dwindex/index.jsp; conditions: reference drugs, ref https://dtp.cancer.gov/dtpstandard/dwindex/index.jsp; cited from earlier work
[9] = system: full panel of 59 cancer cell lines; conditions: cited from earlier work
M14 [10] = system: M14; parameters: method as in https://dtp.cancer.gov/dtpstandard/dwindex/index.jsp; conditions: reference drugs, ref https://dtp.cancer.gov/dtpstandard/dwindex/index.jsp; cited from earlier work
NCI-H522 = system: NCI-H522; parameters: method as in https://dtp.cancer.gov/dtpstandard/dwindex/index.jsp; conditions: reference drugs, ref https://dtp.cancer.gov/dtpstandard/dwindex/index.jsp; cited from earlier work
SNB-75 = system: SNB-75; parameters: method as in https://dtp.cancer.gov/dtpstandard/dwindex/index.jsp; conditions: reference drugs, ref https://dtp.cancer.gov/dtpstandard/dwindex/index.jsp; cited from earlier work
SR [11] = system: SR; parameters: method as in https://dtp.cancer.gov/dtpstandard/dwindex/index.jsp; conditions: reference drugs, ref https://dtp.cancer.gov/dtpstandard/dwindex/index.jsp; cited from earlier work
[12] = system: renal cancer tumour cell lines; conditions: cited from earlier work
BT-549 [13] = system: BT-549; parameters: method as in https://dtp.cancer.gov/dtpstandard/dwindex/index.jsp; conditions: reference drugs, ref https://dtp.cancer.gov/dtpstandard/dwindex/index.jsp; cited from earlier work
NCI-H23 [14] = system: NCI-H23; parameters: method as in https://dtp.cancer.gov/dtpstandard/dwindex/index.jsp; conditions: reference drugs, ref https://dtp.cancer.gov/dtpstandard/dwindex/index.jsp; cited from earlier work
NCI-H322M = system: NCI-H322M; parameters: method as in https://dtp.cancer.gov/dtpstandard/dwindex/index.jsp; conditions: reference drugs, ref https://dtp.cancer.gov/dtpstandard/dwindex/index.jsp; cited from earlier work
HT29 = system: HT29; parameters: method as in https://dtp.cancer.gov/dtpstandard/dwindex/index.jsp; conditions: reference drugs, ref https://dtp.cancer.gov/dtpstandard/dwindex/index.jsp; cited from earlier work
NCI-H226 = system: NCI-H226; parameters: method as in https://dtp.cancer.gov/dtpstandard/dwindex/index.jsp; conditions: reference drugs, ref https://dtp.cancer.gov/dtpstandard/dwindex/index.jsp; cited from earlier work
MDA-MB-468 = system: MDA-MB-468; parameters: method as in https://dtp.cancer.gov/dtpstandard/dwindex/index.jsp; conditions: reference drugs, ref https://dtp.cancer.gov/dtpstandard/dwindex/index.jsp; cited from earlier work
K-562 = system: K-562; parameters: method as in https://dtp.cancer.gov/dtpstandard/dwindex/index.jsp; conditions: reference drugs, ref https://dtp.cancer.gov/dtpstandard/dwindex/index.jsp; cited from earlier work
[15] = Homo sapiens, SK-MEL-5, one dose 10 µM
[16] = HOP-62, one dose 10 µM, read-out: Growth inhibition percentage (GI%)
[17] = five concentrations 0.01-100 µM
[18] = read-out: LC50 (subpanel average), reference drugs, ref https://dtp.cancer.gov/dtpstandard/dwindex/index.jsp
[19] = reference drugs, ref https://dtp.cancer.gov/dtpstandard/dwindex/index.jsp
[20] = read-out: GI50 (subpanel average), reference drugs, ref https://dtp.cancer.gov/dtpstandard/dwindex/index.jsp

Structure (SMILES): Cc1ccc(C=NNC(=O)c2ccc(S(C)(=O)=O)cc2)cc1 [Compound 9, N'-(4-Methylbenzylidene)-4-(methylsulfonyl)benzohydrazide]
- inhibition at 10 µM (MOLT-4): 22.6%
- inhibition at 10 µM (NCI-H23 [1]): < 10%
- inhibition at 10 µM (BT-549 [2]): < 10%
- inhibition at 10 µM (CAKI-1 [3]): 25%
- inhibition at 10 µM (T-47D): < 10%
- inhibition at 10 µM (OVCAR-3): < 10%
- inhibition at 10 µM (SK-OV-3): < 10%
- inhibition at 10 µM (MCF7): 21.4%
- inhibition at 10 µM (HCC-2998): < 10%
- inhibition at 10 µM (UACC-62): 19.1%
- inhibition at 10 µM (NCI/ADR-RES): 14.6%
- inhibition at 10 µM (LOX IMVI): < 10%
- inhibition at 10 µM (SR [4]): 43.8%
- inhibition at 10 µM (HCT-15): 16.3%
- inhibition at 10 µM (SK-MEL-5; [15]): 13.5%
- inhibition at 10 µM (EKVX): < 10%
- inhibition at 10 µM (M14 [5]): < 10%
- inhibition at 10 µM (HOP-62; [16]): < 10%
- inhibition at 10 µM (COLO 205): < 10%

Structure (SMILES): CS(=O)(=O)c1ccc(C(=O)N/N=C/c2ccccc2O)cc1 [Compound 16]
- inhibition at 10 µM (MOLT-4): 90.8%
- inhibition at 10 µM (NCI-H23 [1]): 45.2%
- inhibition at 10 µM (BT-549 [2]): 47%
- inhibition at 10 µM (CAKI-1 [3]): 65.1%
- inhibition at 10 µM (T-47D): 47.6%
- inhibition at 10 µM (OVCAR-3): 77.2%
- inhibition at 10 µM (SK-OV-3): 60.1%
- inhibition at 10 µM (MCF7): 77.5%
- inhibition at 10 µM (HCC-2998): 52.7%
- inhibition at 10 µM (UACC-62): 83.6%
- inhibition at 10 µM (NCI/ADR-RES): 70.1%
- inhibition at 10 µM (LOX IMVI): 78.6%
- inhibition at 10 µM (SR [4]): 79.6%
- inhibition at 10 µM (HCT-15): 82%
- inhibition at 10 µM (SK-MEL-5; [15]): 67.8%
- inhibition at 10 µM (EKVX): 74.2%
- inhibition at 10 µM (M14 [5]): 67.5%
- inhibition at 10 µM (HOP-62; HOP-62, read-out: Growth inhibition percentage (GI%)): 71.8%
- inhibition at 10 µM (COLO 205): 68.8%

Structure (SMILES): CCN(CC)c1ccc(/C=N/NC(=O)c2ccc(S(C)(=O)=O)cc2)c(O)c1 [Compound 20]
- GI50 (MOLT-4; [17]): 164 nM
- inhibition at 10 µM (MOLT-4): 97.3%
- GI50 (NCI-H23 [1]; [17]): 446 nM
- inhibition at 10 µM (NCI-H23 [1]): 67.2%
- GI50 (BT-549 [2]; [17]): 346 nM
- inhibition at 10 µM (BT-549 [2]): 69.3%
- GI50 (CAKI-1 [3]; [17]): 104 nM
- inhibition at 10 µM (CAKI-1 [3]): 79.6%
- GI50 (T-47D; [17]): 390 nM
- inhibition at 10 µM (T-47D): 70%
- GI50 (OVCAR-3; [17]): 125 nM
- inhibition at 10 µM (OVCAR-3): 66.6%
- GI50 (SK-OV-3; [17]): 251 nM
- inhibition at 10 µM (SK-OV-3): 61%
- GI50 (MCF7; [17]): 253 nM
- inhibition at 10 µM (MCF7): 91.2%
- GI50 (HCC-2998; [17]): 301 nM
- inhibition at 10 µM (HCC-2998): 60.4%
- GI50 (UACC-62; [17]): 234 nM
- inhibition at 10 µM (UACC-62): > 100%
- GI50 (NCI/ADR-RES; [17]): 324 nM
- inhibition at 10 µM (NCI/ADR-RES): 82.2%
- GI50 (LOX IMVI; [17]): 99.7 nM
- inhibition at 10 µM (LOX IMVI): 90.3%
- GI50 (SR [4]; [17]): 63 nM
- inhibition at 10 µM (SR [4]): 91%
- GI50 (HCT-15; [17]): 92 nM
- inhibition at 10 µM (HCT-15): 71.5%
- inhibition at 10 µM (SK-MEL-5; Homo sapiens, SK-MEL-5, SK-MEL-5, one dose 10 µM): 100%
- GI50 (SK-MEL-5; Homo sapiens, SK-MEL-5, five concentrations 0.01-100 µM): 223 nM
- Growth inhibition percentage (GI%) (SK-MEL-5; SK-MEL-5, one dose 10 µM): >100%
- GI50 (EKVX; [17]): 162 nM
- inhibition at 10 µM (EKVX): 84.5%
- GI50 (M14 [5]; [17]): 171 nM
- inhibition at 10 µM (M14 [5]): 96.6%
- GI50 (HOP-62; HOP-62, five concentrations 0.01-100 µM): 85 nM
- inhibition at 10 µM (HOP-62; [16]): 87.1%
- GI50 (COLO 205; [17]): 269 nM
- inhibition at 10 µM (COLO 205): 91.4%

Structure (SMILES): CNC(=O)c1cc(Oc2ccc(NC(=O)Nc3ccc(Cl)c(C(F)(F)F)c3)cc2)ccn1 [Sorafenib, sorafenib]
- CC50 [6, 18]: 57300 nM
- TGI (subpanel average) [6, 19]: 9350 nM
- GI50 (CAKI-1 [7]): 3160 nM
- GI50 [8, 20]: 2330 nM
- CC50 [8, 18]: 27800 nM
- TGI (subpanel average) [8, 19]: 7640 nM
- GI50 (TK-10): 3980 nM
- GI50 (MALME-3M): 1990 nM
- GI50 ([9]; read-out: GI50 MG-MID (full panel mean-graph midpoint), reference drugs, ref https://dtp.cancer.gov/dtpstandard/dwindex/index.jsp): 2330 nM
- CC50 ([9]; read-out: LC50 MG-MID (full panel mean-graph midpoint), reference drugs, ref https://dtp.cancer.gov/dtpstandard/dwindex/index.jsp): 43100 nM
- TGI MG-MID (full panel mean-graph midpoint) [9, 19]: 9110 nM
- GI50 (M14 [10]): 1990 nM
- GI50 (NCI-H522): 1990 nM
- GI50 (SNB-75): 3160 nM
- GI50 (SR [11]): 3160 nM
- GI50 [12, 20]: 2860 nM
- CC50 [12, 18]: 54800 nM
- TGI (subpanel average) [12, 19]: 10860 nM
- GI50 (BT-549 [13]): 3160 nM
- GI50 (NCI-H23 [14]): 1990 nM
- GI50 (NCI-H322M): 2510 nM
- GI50 (HT29): 1990 nM
- GI50 (NCI-H226): 1990 nM
- GI50 (MDA-MB-468): 1990 nM
- GI50 (K-562): 3160 nM
